Experimental data published in patent publication US11180462B2, “Microbiocidal oxadiazole derivatives” (SYNGENTA PARTICIPATIONS AG, priority 2015, dated 2021).

Legend:
[1] = tested on: Puccinia recondita f. Sp. Tritici; assay: Fungicidal activity against Puccinia recondita f. sp. tritici / wheat / leaf disc curative (brown rust); type: in vivo; conditions: foliar, 24 h, 200 ppm in the applied formulation, wheat leaf segments, curative (applied 1 day after inoculation), compared to untreated control leaf disks, read-out: disease control
How it was run: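 Segments of wheat cv. Kanzler were laid on agar and inoculated with a spore suspension of the rust, then held in darkness at 19° C and 75% relative humidity. One day later the water-diluted formulated compound was applied, with incubation continued under a 12 h light/dark cycle.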

[2] = tested on: Puccinia recondita f. Sp. Tritici; assay: Fungicidal activity against Puccinia recondita f. sp. tritici / wheat / leaf disc preventative (brown rust); type: in vivo; conditions: foliar, 200 ppm in the applied formulation, wheat leaf segments, preventative, compared to untreated control leaf disks, read-out: disease control
How it was run: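 Compound application precedes infection: segments of wheat cv. Kanzler, sprayed at 200 ppm, are inoculated with a spore suspension after 1 day. Incubation is at 19° C. with 75% relative humidity and 12 h light/12 h darkness, and control versus untreated leaves is rated 7 to 9 days post-application.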

[3] = tested on: Glomerella lagenarium (Colletotrichum lagenarium); assay: Fungicidal activity against Glomerella lagenarium (Colletotrichum lagenarium) liquid culture / cucumber / preventative (anthracnose); type: cell-based; conditions: Colletotrichum orbiculare; 20 ppm in the applied formulation; liquid culture (PDB), growth inhibition measured photometrically after 3 to 4 days; compared to untreated control; read-out: disease control
How it was run: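 Photometric read-out of fungal growth after 2–7 days, expressed as percent antifungal activity versus untreated check. Cryo-stored conidia in PDB; compound at 20 ppm; dark, 24 °C, 96% RH.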

Phakopsora Pachyrhizi = assay: Fungicidal activity against Phakopsora pachyrhizi / soybean / leaf disc preventative (Asian soybean rust); type: in vivo; conditions: foliar, 200 ppm in the applied formulation, soybean leaf disks, compared to untreated control leaf disks, read-out: disease control
How it was run: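 Preventative soybean leaf-disc test: discs on water agar sprayed with diluted formulated compound, inoculated one day later with spores on the lower surface. Held 24–36 h dark at 20°C, 75% rh, then 12 h light/day; percent disease control versus untreated discs scored 12–14 days after application.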

O=C(C1CCCO1)N(Cc1ccc(-c2noc(C(F)(F)F)n2)cc1)CC(F)(F)F (stereo not shown) [Compound 1.587, N-(2,2,2-Trifluoroethyl)-N-[[4-[5-(Trifluoromethyl)-1,2,4-Oxadiazol-3-yl]Phenyl]Methyl]Tetrahydrofuran-2-Carboxamide]
≥ 80%: pest or weed control at 200 ppm [1] | pest or weed control at 200 ppm [2] | inhibition of growth at 20 ppm [3] | pest or weed control at 200 ppm (Phakopsora Pachyrhizi)

C#CCN(Cc1ccc(-c2noc(C(F)(F)F)n2)cc1)C(=O)CCCOC [Compound 1.196, 4-methoxy-N-prop-2-ynyl-N-[[4-[5-(trifluoromethyl)-1,2,4-oxadiazol-3-yl]phenyl]methyl]-butanamide]
≥ 80%: pest or weed control at 200 ppm [1] | pest or weed control at 200 ppm [2] | inhibition of growth at 20 ppm [3] | pest or weed control at 200 ppm (Phakopsora Pachyrhizi)

CC(C)C(=O)N(CCO)Cc1ccc(-c2noc(C(F)(F)F)n2)cc1 [Compound 1.707, N-(2-hydroxyethyl)-2-methyl-N-[[4-[5-(trifluoromethyl)-1,2,4-oxadiazol-3-yl]phenyl]methyl]-propanamide]
≥ 80%: pest or weed control at 200 ppm [1] | pest or weed control at 200 ppm [2] | inhibition of growth at 20 ppm [3] | pest or weed control at 200 ppm (Phakopsora Pachyrhizi)

CC(C)N(Cc1ccc(-c2noc(C(F)(F)F)n2)cc1)C(=O)C1CC1 [Compound 1.599, N-isopropyl-N-[[4-[5-(trifluoromethyl)-1,2,4-oxadiazol-3-yl]phenyl]methyl]-cyclopropane-carboxamide]
≥ 80%: pest or weed control at 200 ppm [1] | pest or weed control at 200 ppm [2] | inhibition of growth at 20 ppm [3] | pest or weed control at 200 ppm (Phakopsora Pachyrhizi)

O=C(CC1CC1)N(Cc1ccc(-c2noc(C(F)(F)F)n2)cc1)C1CC1 [Compound 1.99, N,2-dicyclopropyl-N-[[4-[5-(trifluoromethyl)-1,2,4-oxadiazol-3-yl]phenyl]methyl]-acetamide]
≥ 80%: pest or weed control at 200 ppm [1] | pest or weed control at 200 ppm [2] | inhibition of growth at 20 ppm [3] | pest or weed control at 200 ppm (Phakopsora Pachyrhizi)

COCCN(Cc1ccc(-c2noc(C(F)(F)F)n2)cc1)C(=O)C1(C#N)CC1 [Compound 1.356, 1-cyano-N-(2-methoxyethyl)-N-[[4-[5-(trifluoromethyl)-1,2,4-oxadiazol-3-yl]phenyl]methyl]-cyclopropane-carboxamide]
≥ 80%: pest or weed control at 200 ppm [1] | pest or weed control at 200 ppm [2] | inhibition of growth at 20 ppm [3] | pest or weed control at 200 ppm (Phakopsora Pachyrhizi)

CON(Cc1ccc(-c2noc(C(F)(F)F)n2)cc1)C(=O)C(C)CC(C)=O (stereo not shown) [Compound 1.22, N-methoxy-2-methyl-4-oxo-N-[[4-[5-(trifluoromethyl)-1,2,4-oxadiazol-3-yl]phenyl]methyl]-pentanamide]
≥ 80%: pest or weed control at 200 ppm [1] | pest or weed control at 200 ppm [2] | inhibition of growth at 20 ppm [3] | pest or weed control at 200 ppm (Phakopsora Pachyrhizi)

CC1(C(=O)N(CCO)Cc2ccc(-c3noc(C(F)(F)F)n3)cc2)COC1 [Compound 1.721, N-(2-hydroxyethyl)-3-methyl-N-[[4-[5-(trifluoromethyl)-1,2,4-oxadiazol-3-yl]phenyl]methyl]-oxetane-3-carboxamide]
≥ 80%: pest or weed control at 200 ppm [1] | pest or weed control at 200 ppm [2] | pest or weed control at 200 ppm (Phakopsora Pachyrhizi)

O=C(OCCN(Cc1ccc(-c2noc(C(F)(F)F)n2)cc1)C(=O)C1CCOC1)C1CCOC1 (stereo not shown) [Compound 1.712, 2-(tetrahydrofuran-3-carbonyl-[[4-[5-(trifluoromethyl)-1,2,4-oxadiazol-3-yl]phenyl]methyl]-amino]ethyl tetrahydrofuran-3-carboxylate]
≥ 80%: pest or weed control at 200 ppm [1] | pest or weed control at 200 ppm [2] | pest or weed control at 200 ppm (Phakopsora Pachyrhizi)

COC(C)C(=O)OCCN(Cc1ccc(-c2noc(C(F)(F)F)n2)cc1)C(=O)C(C)OC (stereo not shown) [Compound 1.732, 2-[2-methoxypropanoyl-[[4-[5-(trifluoromethyl)-1,2,4-oxadiazol-3-yl]phenyl]methyl]-amino]ethyl 2-methoxypropanoate]
≥ 80%: pest or weed control at 200 ppm [1] | pest or weed control at 200 ppm [2] | pest or weed control at 200 ppm (Phakopsora Pachyrhizi)

C#CCN(Cc1ccc(-c2noc(C(F)(F)F)n2)cc1)C(=O)C(C)OC (stereo not shown) [Compound 1.200, 2-methoxy-N-prop-2-ynyl-N-[[4-[5-(trifluoromethyl)-1,2,4-oxadiazol-3-yl]phenyl]methyl]-propanamide]
≥ 80%: pest or weed control at 200 ppm [1] | pest or weed control at 200 ppm [2] | pest or weed control at 200 ppm (Phakopsora Pachyrhizi)

CCCCON(Cc1ccc(-c2noc(C(F)(F)F)n2)cc1)C(=O)C(C)CC (stereo not shown) [Compound 1.640, N-butoxy-2-methyl-N-[[4-[5-(trifluoromethyl)-1,2,4-oxadiazol-3-yl]phenyl]methyl]-butanamide]
≥ 80%: pest or weed control at 200 ppm [1] | pest or weed control at 200 ppm [2] | pest or weed control at 200 ppm (Phakopsora Pachyrhizi)

CC1(C(=O)OCCN(Cc2ccc(-c3noc(C(F)(F)F)n3)cc2)C(=O)C2(C)COC2)COC1 [Compound 1.722, 2-[(3-methyloxetane-3-carbonyl)-[[4-[5-(trifluoromethyl)-1,2,4-oxadiazol-3-yl]phenyl]methyl]-amino]ethyl 3-methyloxetane-3-carboxylate]
≥ 80%: pest or weed control at 200 ppm [1] | pest or weed control at 200 ppm [2] | pest or weed control at 200 ppm (Phakopsora Pachyrhizi)

COC(C)C(=O)N(CCO)Cc1ccc(-c2noc(C(F)(F)F)n2)cc1 (stereo not shown) [Compound 1.731, N-(2-hydroxyethyl)-2-methoxy-N-[[4-[5-(trifluoromethyl)-1,2,4-oxadiazol-3-yl]phenyl]methyl]-propanamide]
≥ 80%: pest or weed control at 200 ppm [1] | pest or weed control at 200 ppm [2] | pest or weed control at 200 ppm (Phakopsora Pachyrhizi)

N#CCC(=O)N(Cc1ccc(-c2noc(C(F)(F)F)n2)cc1)C1COC1 [Compound 1.748, 2-cyano-N-(oxetan-3-yl)-N-[[4-[5-(trifluoromethyl)-1,2,4-oxadiazol-3-yl]phenyl]methyl]-acetamide]
≥ 80%: pest or weed control at 200 ppm [1] | pest or weed control at 200 ppm [2] | pest or weed control at 200 ppm (Phakopsora Pachyrhizi)

CC1(C(=O)N(Cc2ccc(-c3noc(C(F)(F)F)n3)cc2)C2COC2)COC1 [Compound 1.744, 3-methyl-N-(oxetan-3-yl)-N-[[4-[5-(trifluoromethyl)-1,2,4-oxadiazol-3-yl]phenyl]methyl]-oxetane-3-carboxamide]
≥ 80%: pest or weed control at 200 ppm [1] | pest or weed control at 200 ppm [2] | pest or weed control at 200 ppm (Phakopsora Pachyrhizi)

O=C(C1CCCO1)N(Cc1ccc(-c2noc(C(F)(F)F)n2)cc1)C1COC1 (stereo not shown) [Compound 1.747, N-(oxetan-3-yl)-N-[[4-[5-(trifluoromethyl)-1,2,4-oxadiazol-3-yl]phenyl]methyl]-tetrahydrofuran-2-carboxamide]
≥ 80%: pest or weed control at 200 ppm [1] | pest or weed control at 200 ppm [2] | pest or weed control at 200 ppm (Phakopsora Pachyrhizi)
